Laboratory results as given in publication PMC7464159, “Triple Negative Breast Cancer and Breast Epithelial Cells Differentially Reprogram Glucose and Lipid Metabolism upon Treatment with Triterpenic Acids” (Biomolecules, 2020).

Assays:
[1] = tested on: MDA-MB-231 cells; assay: 1H NMR analysis of culture medium supernatants (exometabolome); type: cell-based, human
Protocol: (§1) MDA-MB-231 and MCF-10A cells were seeded in 10-cm-diameter Petri dishes at a density of 6 × 10^5 cells/mL (10 mL per dish) and cultured for 24 h at 37 °C. Cells were then incubated for 48 h with BA (5 and 15 µM) or UA (10 and 20 µM). Vehicle solvent control cells received DMSO (0.10% v/v). Samples were collected immediately after 48 h incubation or, to assess cellular recovery, medium was replaced with fresh growth medium (without TAs), and cells were incubated for additional 24 h before collection (48 + 24 h samples). Four independent assays were performed.
(§2) After incubation, culture medium was collected and centrifuged (1000× g, 5 min) and the supernatant stored at −80 °C until analysis. Culture medium without cells was placed under the same conditions and collected. Cell extraction was performed as described by Carrola et al.. Briefly, cells were washed four times with PBS and extracted with a mixture of methanol:chloroform:water (1:1:0.7). The resulting polar and organic phases were collected and then dried under vacuum or under a stream of nitrogen gas, respectively. All samples were stored at −80 °C and, at the time of analysis, dried polar extracts were reconstituted in 600 µL of deuterated phosphate buffer (100 mM, pH 7.4) containing 0.1 mM TSP-d4, while organic extracts were reconstituted in deuterated chloroform containing 0.03% TMS. Regarding medium samples, 540 μL were mixed with 60 μL of D2O containing 0.25% TSP-d4. Prior to analysis, 550 μL of each sample were transferred to 5 mm NMR tubes.
(§3) ^1H NMR spectra of all samples were acquired on a Bruker Avance III HD 500 NMR spectrometer (University of Aveiro, Portuguese NMR Network) operating at 500.13 MHz for ^1H observation equipped with a 5 mm TXI probe. Standard 1D spectra (Bruker pulse programs ‘noesypr1d’, with water suppression, for medium samples and aqueous extracts, and ‘zg’ for organic extracts) were recorded with a 7002.8 Hz spectral width, 32 k data points, a 2 s relaxation delay and 512 scans. Spectral processing comprised exponential multiplication with 0.3 Hz line broadening, zero filling to 64 k data points, manual phasing, baseline correction, and chemical shift calibration to the TSP or TMS signal at 0 ppm. 2D ^1H-^1H total correlation (TOCSY) spectra, ^1H-^13C heteronuclear single quantum correlation (HSQC) spectra and J-resolved spectra were also registered for selected samples to assist spectral assignment. Metabolites were identified with the support of 2D spectra and the spectral reference databases BBIOREFCODE-2-0-0 (Bruker Biospin, Rheinstetten, Germany) and HMDB [28]. Selected signals were then integrated using the AmixViewer software […] (version 3.9.14, Bruker BioSpin, Rheinstetten, Germany) and normalized by the total spectral area. The magnitude of each metabolite change was assessed through the percentage of variation (and its respective error) in exposed samples relatively to controls, and through the effect size (ES) adjusted for small sample numbers (and respective standard error). Metabolite variations with absolute ES greater than 0.8 were expressed in a heatmap, colored as a function of the percentage of variation, employing the R statistical software.

[2] = tested on: MCF-10A cells; assay: as above; type: cell-based, human
Protocol: as §1, §2, §3

[3] = tested on: MDA-MB-231 cells; set-up: method as in PMID 28213701; details: MDA-MB-231, 24 h incubation; read-out: IC50 reported in the literature; cited from earlier work
[4] = tested on: MDA-MB-231 cells; assay: Cell cycle analysis by flow cytometry; type: cell-based, human; details: 48 h
Protocol: (§4) MDA-MB-231 and MCF-10A cells were seeded in six-well plates at a density of 4 × 10^5 cells/mL (2 mL per well) and cultured for 24 h at 37 °C. […] Vehicle solvent control cells received DMSO (0.10% v/v). Then, cells were trypsinized, collected, washed with phosphate buffered saline (PBS) and fixed with 85% cold ethanol. At the time of analysis, cells were centrifuged at 300× g for 5 min at 4 °C and resuspended in PBS, before being treated with RNase (50 µg/mL) and propidium iodide staining solution (50 µg/mL) and incubated, in the dark, for at least 20 min at room temperature. Propidium iodide-stained cells were analyzed on a Coulter EPICS XL (Beckman Coulter, Hialeah, FL, USA) flow cytometer. The results were acquired using the SYSTEM II software (version 3.0 Beckman-Coulter ®, Brea, CA, USA). Four replicates were performed for each treatment, and for each sample at least 5000 nuclei were acquired. Analysis of cell cycle distribution was performed using the FlowJo software (Tree Star, Ashland, USA).

[5] = tested on: MCF-10A cells; assay: Cell cycle analysis by flow cytometry; type: cell-based, human; details: 48 h
Protocol: as §4

SMILES: C[C@H]1[C@H](C)CC[C@]2(C(=O)O)CC[C@]3(C)C(=CC[C@@H]4[C@@]5(C)CC[C@H](O)C(C)(C)[C@@H]5CC[C@]43C)[C@H]12 [UA, ursolic acid]
- consumption of glucose, leucine and choline ([1]; UA, 48 + 24 h): decreased consumption
- excretion of lactate, 2-oxoisovalerate, citrate, alanine and glutamate ([1]; UA, 48 + 24 h): decreased excretion
- changes in the exometabolome ([1]; UA, 48 h): no significant changes
- consumption of glucose and pyruvate ([2]; 48 h): increasing the consumption
- excretion of lactate ([2]; 48 h): increasing
- consumption of several amino acids ([2]; UA, 48 h): decreased
- IC50 [3]: 22.9 µM
- effect on cell cycle phases ([4]; 20 µM, vs untreated): no statistical differences
- effect on cell cycle phases ([5]; 20 µM, vs untreated): no statistical differences

SMILES: C=C(C)[C@@H]1CC[C@]2(C(=O)O)CC[C@]3(C)[C@H](CC[C@@H]4[C@@]5(C)CC[C@H](O)C(C)(C)[C@@H]5CC[C@]43C)[C@@H]12 [BA, betulinic acid]
- consumption of leucine ([1]; BA 5µM, 48h): decreased significantly
- glucose consumption ([1]; BA 15µM, 48h): significant increases
- lactate excretion ([1]; BA 15 µM, 48 h (already noticed at 5 µM)): significant increases
- consumption of leucine and pyruvate ([1]; BA, 48 + 24 h): consumed less
- excretion of 2-oxoisovalerate, citrate and alanine ([1]; BA, 48 + 24 h): excreted less
- glucose consumption and lactate excretion vs untreated controls ([1]; BA, 48 + 24 h): no longer differences
- consumption of glucose and pyruvate ([2]; 48 h): consumed more
- excretion of lactate ([2]; 48 h): excreting more
- consumption of glucose, pyruvate and acetate ([2]; BA, 48 + 24 h): decreased
- formate excretion ([2]; BA, 48 + 24 h): increased
- consumption of several amino acids (BCAA, glutamine, phenylalanine, tyrosine) ([2]; BA, 48 h): significantly reduced
- excretion of alanine and fumarate ([2]; BA, 48 h): decreased excretion
- IC50 [3]: 30.6 µM
- cell population at the S phase ([4]; 15 µM, vs non-exposed control): decreased cell population
- cells at the G2 phase ([4]; 15 µM, vs non-exposed control): significant accumulation
- cells at the G0/G1 phase ([5]; 15 µM, vs control): decrease in the G0/G1 phase
- cells at the G2 phase ([5]; 15 µM, vs control): cell cycle arrest at the G2 phase
- cells at the S phase ([5]; 15 µM, vs control): increase in the S phase
